Measurements: patent EP1144368B1, “ACETYLENIC ALPHA-AMINO ACID-BASED SULFONAMIDE HYDROXAMIC ACID TACE INHIBITORS” (priority 1999, dated 2000)
Where a name gives a salt, the structure may show the parent alone. Read-outs that look alike come from different tables or passages of the source.

Test system: THP-1 cells
Assay: THP-1 Soluble Protein Assay (LPS-stimulated; ELISA of TNF-a, TNF-R p75/80, TNF-R p55/60, IL-8)
Type: cell-based, human
Settings: for inhibition at 3 µM: Homo sapiens
[1] = THP-1, read-out: THP % inhibition @ 3 µM, 3 µM

Protocol: Each vial of cells are cultured for about two weeks prior to being used for an assay and then are used for only 4 to 6 weeks to screen compounds.
Plates are placed into an incubator set at 5% CO2 and at 37° C. After 4 hours of incubation, 300 ml/well of tissue culture supernatant (TCS) is removed for use in an TNF-a ELISA.
Percent change in each soluble protein evaluated from the "vehicle positive control" was calculated for each compound concentration with the following formula: % Change =(pg/ml (compound) - pg/ml (veh pos control))/(pg/ml (veh pos control) - pg/ml (veh neg control))x 100 [formula]
For the soluble protein (TNF-a, p75/80, p55/60, IL-8) studies under stimulated conditions, the mean pg/ml of duplicate wells were determined and the results expressed as percent change from "vehicle positive control".

Row | SMILES | inhibition at 3 µM [1] [%] | further results
1 | CC#CCOc1ccc(S(=O)(=O)N2CC[S+]([O-])C(C)(C)C2C(=O)NO)cc1 (single isomer, unassigned) [Example 255] |  | THP % inhibition @ 3 µM (3 µM): 95%
2 | CC#CCOc1ccc(S(=O)(=O)N2CC[S+]([O-])C(C)(C)C2C(=O)NO)cc1 (single isomer, unassigned) [Example 256] | 92 | 
3 | CC#CCOc1ccc(S(=O)(=O)N(C)C(C(=O)NO)C(C)C)cc1 (centres unmarked) [Example 9, 2-[(4-But-2-ynyloxy-benzenesulfonyl)-methyl-amino]-N-hydroxy-3-methyl-butyramide] | 94 | 
4 | CC#CCOc1ccc(S(=O)(=O)N(Cc2cccnc2)C(C)C(=O)NO)cc1 (centres unmarked) [Example 33, 2-[(4-But-2-ynyloxy-benzenesulfonyl)-pyridin-3-ylmethyl-amino]-N-hydroxy-propionamide hydrochloride] | 80 | 
5 | CCCCC#CCOc1ccc(S(=O)(=O)N2CCSC(C)(C)C2C(=O)NO)cc1 (centres unmarked) [Example 40, 4-(4-Hept-2-ynyloxy-benzenesulfonyl)-2,2-dimethyl-thiomorpholine-3-carboxylic acid hydroxyamide] | 82 | 
6 | CC#CCOc1ccc(S(=O)(=O)N2Cc3ccccc3CC2C(=O)NO)cc1 (centres unmarked) [Example 41, 2-(4-But-2-ynyloxy-benzenesulfonyl)-1,2,3,4-tetrahydro-isoquinoline-3-carboxylic acid hydroxyamide] | 93 | 
7 | CC#CCOc1ccc(S(=O)(=O)N2CCCN(C(=O)c3ccccc3)CC2C(=O)NO)cc1 (centres unmarked) [Example 49, 4-Benzoyl-1-(4-but-2-ynyloxy-benzenesulfonyl)-[1,4]diazepane-2-carboxylic acid hydroxyamide] |  | inhibition at 3 µM (THP-1, 3 µM, read-out: THP % Inhibition @ 3µM): 32%
8 | CC#CCOc1ccc(S(=O)(=O)N2CCN(C)CC2C(=O)NO)cc1 (centres unmarked) [Example 56, 1-(4-But-2-ynyloxy-benzenesulfonyl)-4-methyl-piperazine-2-carboxylic acid hydroxyamide hydrochloride] | 32 | 
9 | CC#CCOc1ccc(S(=O)(=O)N2CCN(C(=O)OC(C)(C)C)CC2C(=O)NO)cc1 (centres unmarked) [Example 58, 4-(4-But-2-ynyloxy-benzenesulfonyl)-3-hydroxycarbamoyl-piperazine-1-carboxylic acid tert-butyl ester] | 79 | 
10 | CC1(C)SCCN(S(=O)(=O)c2ccc(OCC#CCO)cc2)C1C(=O)NO (centres unmarked) [Example 61, 4-[4-(4-Hydroxy-but-2-ynyloxy)-benzenesulfonyl]-2,2-dimethyl-thiomorpholine-3-carboxylic acid hydroxyamide] |  | inhibition at 3 µM (THP-1, read-out: THP % inhibition @ 3 µM): 89%
11 | CC#CCOc1ccc(S(=O)(=O)N(CC)C(C(=O)NO)C(C)C)cc1 (centres unmarked) [Example 108, 2-[(4-But-2-ynyloxy-benzenesulfonyl)-ethyl-amino]-N-hydroxy-3-methyl-butyramide] | 76 | 
12 | C#CCN(C(C(=O)NO)C(C)C)S(=O)(=O)c1ccc(OCC#CC)cc1 (centres unmarked) [Example 109, 2-[{[4-(2-Butynyloxy)phenyl]sulfonyl}(2-propynyl)amino]-N-hydroxy-3-methylbutanamide] | 85 | 
13 | CC#CCOc1ccc(S(=O)(=O)N(CCC)C(C(=O)NO)C(C)C)cc1 (centres unmarked) [Example 110, 2-[(4-But-2-ynyloxy-benzenesulfonyl)-propyl-amino]-N-hydroxy-3-methyl-butyramide] | 47 | 
14 | CC#CCOc1ccc(S(=O)(=O)N(CCCc2ccccc2)C(C(=O)NO)C(C)C)cc1 (centres unmarked) [Example 111, 2-[(4-But-2-ynyloxy-benzenesulfonyl)-(3-phenyl-propyl)-amino]-N-hydroxy-3-methyl-butyramide] | 35 | 
15 | CC#CCOc1ccc(S(=O)(=O)N(CC2CC2)C(C(=O)NO)C(C)C)cc1 (centres unmarked) [Example 112, 2-[(4-But-2-ynyloxy-benzenesulfonyl)-cyclopropylmethyl-amino]-N-hydroxy-3-methyl-butyramide] | 50 | 
16 | CC#CCOc1ccc(S(=O)(=O)N(CC(C)C)C(C(=O)NO)C(C)C)cc1 (centres unmarked) [Example 113, 2-[(4-But-2-ynyloxy-benzenesulfonyl)-isobutyl-amino]-N-hydroxy-3-methyl-butyramide] | 0 | 
17 | CC#CCOc1ccc(S(=O)(=O)N(Cc2cccnc2)C(C(=O)NO)C(C)C)cc1 (centres unmarked) [Example 114, 2-[(4-But-2-ynyloxy-benzenesulfonyl)-pyridin-3-ylmethyl-amino]-N-hydroxy-3-methyl-butyramide] | 75 | 
18 | CC#CCOc1ccc(S(=O)(=O)N(C)C(C(=O)NO)C2CCCCC2)cc1 (centres unmarked) [Example 115, 2-[(4-But-2-ynyloxy-benzenesulfonyl)-methyl-amino]-2-cyclohexyl-N-hydroxy-acetamide] | 89 | 
19 | CC#CCOc1ccc(S(=O)(=O)N(Cc2cccnc2)[C@@H](C(=O)NO)C2CCCCC2)cc1 [Example 116, 2-[(4-But-2-ynyloay-benzenesulfonyl)-pyridin-3-ylmethyl-amino]-2-cyclohexyl-N-hydroxy-acetamide] | 75 | 

Row | SMILES | inhibition at 3 µM [1] [%] | further results
20 | CC#CCOc1ccc(S(=O)(=O)N(Cc2ccc(OCCN3CCCCC3)cc2)C(C(=O)NO)C2CCCCC2)cc1 (centres unmarked) [Example 117, 2-{(4-But-2-ynyloxy-benzenesulfonyl)-[4-(2-piperidin-1-yl-ethoxy)-benzyl]-amino}-2-cyclohexyl-N-hydroxy-acetamide] | 88 | 
21 | CC#CCOc1ccc(S(=O)(=O)N(CCCN(CC)CC)C(C(=O)NO)C(C)C)cc1 (centres unmarked) [Example 118, 2-{{[4-(2-Butynyloxy)phenyl]sulfonyl}[3-(diethylamino)propyl]amino}-N-hydroxy-3-methylbutanamide] | 77 | 
22 | CC#CCOc1ccc(S(=O)(=O)N(CCCN2CCOCC2)C(C(=O)NO)C(C)C)cc1 (centres unmarked) [Example 119, 2-{{[4-(2-Butynyloxy)phenyl]sulfonyl}[3-(4-morpholinyl)propyl]amino}-N-hydroxy-3-methylbutanamide] | 61 | 
23 | CC#CCOc1ccc(S(=O)(=O)N(CCCN2CCN(C)CC2)C(C(=O)NO)C(C)C)cc1 (centres unmarked) [Example 120, 2-{{[4-(2-Butynyloxy)phenyl]sulfonyl}[3-(4-methyl-1-piperazinyl)propyl]amino}-N-hydroxy-3-methylbutanamide hydrochloride] | 61 | 
24 | CC#CCOc1ccc(S(=O)(=O)N(CCCCN(CC)CC)C(C(=O)NO)C(C)C)cc1 (centres unmarked) [Example 121, 2-{{[4-(2-Butynyloxy)phenyl]sulfonyl}[4-(diethylamino)butyl]amino}-N-hydroxy-3-methylbutanamide] | 65 | 
25 | CC#CCOc1ccc(S(=O)(=O)N(CCN2CCOCC2)C(C(=O)NO)C(C)C)cc1 (centres unmarked) [Example 123, 2-[[[4-(2-Butynyloxy)phenyl]sulfonyl][2-(4-morpholinyl)ethyl]amino]-N-hydroxy-3-methylbutanamide] | 35 | 
26 | CC#CCOc1ccc(S(=O)(=O)N(CCN2CCOCC2)CC(=O)NO)cc1 [Example 124, 2-[{[4-(But-2-ynyloxy)phenyl]sulfonyl}(2-morpholin-4-ylethyl)amino]-N-hydroxyacetamide hydrochloride] | 24 | 
27 | CC#CCOc1ccc(S(=O)(=O)N(CC#CCN2CCN(C)CC2)C(C(=O)NO)C(C)C)cc1 (centres unmarked) [Example 125, 2-{{[4-(2-Butynyloxy)phenyl]sulfonyl}[4-(4-methyl-1-piperazinyl)-2-butynyl]amino}-N-hydroxy-3-methylbutanamide] | 72 | 
28 | CC#CCOc1ccc(S(=O)(=O)N(CC#CCNC)C(C(=O)NO)C(C)C)cc1 (centres unmarked) [Example 127, 2-{{[4-(2-Butynyloxy)phenyl]sulfonyl}[4-(methylamino)-2-butynyl]amino}-N-hydroxy-3-methylbutanamide] | 83 | 
29 | CC#CCOc1ccc(S(=O)(=O)N(C)[C@@H](C(=O)NO)C2CCC(N(CC)CC)CC2)cc1 (stereo partly drawn) [Example 128, ((2R)-{[4-(2-Butynyloxy)phenyl]sulfonyl}(methyl)amino)[(4-diethylamino)cyclohexyl]-N-hydroxyethamide] | 51 | 
30 | CC#CCOc1ccc(S(=O)(=O)N(C)[C@@H](C(=O)NO)[C@H]2CC[C@H](O)CC2)cc1 [Example 130] | 92 | 
31 | CC#CCOc1ccc(S(=O)(=O)N(C)CC(=O)NO)cn1 [Example 131, 2-[(6-But-2-ynyloxy-pyridine-3-sulfonyl)-methyl-amino]-N-hydroxy-acetamide] | 18 | 
32 | CC#CCOc1ccc(S(=O)(=O)N(CC#CCN2CCN(C)CC2)C(C)C(=O)NO)cc1 (centres unmarked) [Example 135, 2-{[[4-(2-butynyloxy)phenyl]sulfonyl][4-(4-methyl-1-piperazinyl)-2-butynylamino]}-N-hydroxypropanamide] | 76 | 
33 | CC#CCOc1ccc(S(=O)(=O)N(C)C2(C(=O)NO)CCCCC2)cc1 [Example 136, 1-[{[4-(2-Butynyloxy)phenyl]sulfonyl}(methyl)amino] -N-hydroxycyclohexanecarboxamide] | 0 | 
34 | CC#CCOc1ccc(S(=O)(=O)N(Cc2cccnc2)C2(C(=O)NO)CCCCC2)cc1 [Example 137, 1-[{[4-(2-Butynyloxy)phenyl]sulfonyl}(3-pyridinylmethyl)amino] N-hydroxycyclohexanecarboxamide] | 0 | 
35 | CC#CCOc1ccc(S(=O)(=O)N(C)C(C(=O)NO)C(C)(C)SCCN2CCOCC2)cc1 (centres unmarked) [Example 140, 2-({[4-(2-Butynyloxy)phenyl]sulfonyl)(methyl)amino]-N-hydroxy-3 methyl-3-[(2(4-morpholinylethyl)sulfanyl]-butanamide hydrochloride] | 80 | 
36 | CC#CCOc1ccc(S(=O)(=O)N(C)C(C(=O)NO)C(C)(C)SCCN2CCN(C)CC2)cc1 (centres unmarked) [Example 141] | 86 | 
37 | CC#CCOc1ccc(S(=O)(=O)N(C)C(C(=O)NO)C(C)(C)SCCN(CC)CC)cc1 (centres unmarked) [Example 142, 2-({[4-(2-Butynyloxy)phenyl]sulfonyl)(methyl)amino]-N-hydroxy-3 methyl-3-{[2-(diethylamino)ethyl]sulfanyl}butanamide] | 89 | 
38 | CC#CCOc1ccc(S(=O)(=O)N(C)C(C(=O)NO)C(C)(C)SCCN2CCCC2)cc1 (centres unmarked) [Example 143, 2-({[4-(2-Butynyloxy)phenyl]sulfonyl)(methyl)amino]-N-hydroxy-3-methyl-3-{[2(1-pyrrolidinyl)ethyl]sulfanyl}butanamide] | 86 | 
